Like-named read-outs stand apart in the source and are kept apart here.
Experiments:
[1] = system: xylene-induced ear swelling in mice; test: Effect on xylene-induced ear swelling in mice; format: in vivo, Kunming male mice; settings: Aspirin 0.2 g/kg i.g. q.d. 3 days; weight of right minus left ear piece; n=10
From the text: Sixty Kunming male mice of Grade II with the mean body weight of 19.77 ± 0.91 g, provided by the breeding farm of the Institute of Laboratory Animal Science, Chinese Academy of Medical Sciences, License number: SCXK (Jing) 2000-0006. • (1) The present medication to be tested, 6.25 g crude drugs/g, provided by […] Pharmaceutical Co. […] SFDA Approval No. Z-11; Lot number of the product: 060112; valid until December 2007. • (3) Aspirin enteric-coated tablet as a western medicine control, 0.3 g/tablet, produced by Yantai the Second Pharmaceutical Factory), lot number: 011102. The above-described medications were formulated with distilled water into the required concentrations in the experiment. Sixty healthy mice were randomly assigned into the following six groups with 10 animals per group: […] (2) the Aspirin group (0.2 g/kg); (3) the […] group (2 g crude drugs/kg); (4) the low dosage group of the present medication (L-dosage group, 3g crude drugs/kg); (5) the medium dosage group of the present medication (M-dosage group, 6g crude drugs/kg); (6)the high dosage group of the present medication (H-dosage group, 12g crude drugs/kg). […] Fifteen minutes later, the animal was sacrificed by dislocation. […] The degree of ear swelling for each mouse was calculated by subtraction of the weight of the left piece from that of the right piece. […]

[2] = system: carrageenan-induced swelling of rat's footpad; test: Effect on carrageenan-induced swelling of rat's footpad; format: in vivo, Wistar male rats; settings: for Foot volume after inflammation / Foot volume, Difference / Swelling rate / inhibition at 150 mg/kg: Aspirin 0.15 g/kg i.g. q.d. 3 days; for inhibition at 150 mg/kg: Rattus norvegicus, po, read-out: Inhibition rate
Experimental: • (1) The present medication to be tested, 6.25g crude drugs/g, provided by […] Pharmaceutical Co. […] SFDA Approval No. Z-11; […] The above-described medications were prepared into the required concentrations with distilled water in the experiment. • (4) Carrageenan, from SIGMA, lot number: 117H0151, prepared into required concentrations for the experiment. Sixty while Wistar male rats of Grade I with the mean body weight of 157.05 ± 8.49 g, provided by Institute of Laboratory Animal Science, Chinese Academy of Medical Sciences, License number: […] The sixty healthy rats were randomly assigned into the following six groups: (1) the blank control group administered with distilled water (10 ml/kg); […] (3) the […] group (1.5 g crude drugs/kg); (4) the low dosage group of the present medication (L-dosage group, 2 g crude drugs/kg); (5) the medium dosage group of the present medication (M-dosage group, 4 g crude drugs/kg); (6)the high dosage group of the present medication (H-dosage group, 8 g crude drugs/kg). The volume of the left hind foot of each animal determined by capillary amplification method was used as the value prior to administration. […] Comparisons among the groups were performed on the difference between the left foot volumes before and after inflammation by t-test.

[3] = system: tampon-induced granuloma in rats; test: Effect on small tampon-induced granuloma in rats; format: in vivo; settings: Aspirin 0.15 g/kg i.g. q.d. 7 days; n=10
From the text: Sixty Wistar […] of Grade II evenly composed of males and females with the mean body weight of 132.37 ± 6.31 g, provided by the breeding farm of the Institute of Laboratory Animal Science, Chinese […] of Medical Sciences, and License number: SCXK (Jing) 2000-0006. • (1) The present medication to be tested, 6.25 g crude drugs/g, provided by […] Pharmaceutical Co. […] No. Z-11; Lot number: 060112. • (3) Aspirin Enteric-coated Tablet as a western medicine control, 0.3 g/tablet, produced by Yantai the Second Pharmaceutical Factory), lot number: 051102. The medication was prepared to required concentrations with distilled water in the experiment. • (4) Ampicillin Sodium Injection (ASI), 0.5 g/bottle, Produced by North China Pharmaceutical Co., Ltd. lot number: F0111207. […] The average wet and dry weights of the post-inflammation granuloma for each of the groups were calculated, from which the original weight of the cotton ball had been subtracted, and were compared among the groups by t-test.

CC(=O)Oc1ccccc1C(=O)O [Aspirin]
Swelling rate [1]: 3.50 ± 0.71 mg
Foot volume after inflammation ([2]; 0.5h): 1.19 ± 0.04 mL
Foot volume, Difference ([2]; 0.5h): 0.21 ± 0.05 mL
Swelling rate ([2]; 0.5h): 21.4±5.49 %
Foot volume after inflammation ([2]; 1h): 1.23 ± 0.04 mL
Foot volume, Difference ([2]; 1h): 0.25 ± 0.03 mL
Swelling rate ([2]; 1h): 25.4±3.87 %
Foot volume after inflammation ([2]; 2h): 1.27 ± 0.02 mL
Foot volume, Difference ([2]; 2h): 0.29 ± 0.03 mL
Swelling rate ([2]; 2h): 29.7±4.00 %
Foot volume after inflammation ([2]; 4h): 1.30 ± 0.04 mL
Foot volume, Difference ([2]; 4h): 0.32 ± 0.04 mL
Swelling rate ([2]; 4h): 32.80±4.78 %
Foot volume after inflammation ([2]; 6h): 1.24 ± 0.03 mL
Foot volume, Difference ([2]; 6h): 0.26 ± 0.04 mL
Swelling rate ([2]; 6h): 26.26±3.95 %
Foot volume before inflammation ([2]; Aspirin group 0.15 g/kg, baseline, n=10): 0.98 ± 0.03 mL
inhibition at 150 mg/kg ([2]; 0.5h): 41.5%
inhibition at 150 mg/kg ([2]; 1h): 41.2%
inhibition at 150 mg/kg ([2]; 2h): 38.6%
inhibition at 150 mg/kg ([2]; 4h): 32.1%
inhibition at 150 mg/kg ([2]; 6h): 45.6%
Dry weight of granuloma [3]: 99.20 ± 10.16 mg
Wet weight of granuloma [3]: 457.85 ± 50.01 mg
